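Interpolation was linear, between the two tested concentrations surrounding the appropriate level; five concentrations were tested over 48 hours in 96-well plates. At the GI50, growth is halved. The concentration for full growth arrest is given as TGI.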
Key:
Assay in all cases: NCI-60 cell line screen, 48 h; in the data active means GI50 below about 0.43 µM; inactive means the rest
786-0 renal = test system: 786-0 renal
A498 renal = test system: A498 renal
A549 NSCLC = test system: A549 NSCLC
ACHN renal = test system: ACHN renal
BT-549 breast = test system: BT-549 breast
CAKI-1 renal = test system: CAKI-1 renal
CCRF-CEM leukemia = test system: CCRF-CEM leukemia
COLO 205 colon = test system: COLO 205 colon
DU-145 prostate = test system: DU-145 prostate
EKVX NSCLC = test system: EKVX NSCLC
HCC-2998 colon = test system: HCC-2998 colon
HCT-116 colon = test system: HCT-116 colon
HCT-15 colon = test system: HCT-15 colon
HOP-62 NSCLC = test system: HOP-62 NSCLC
HOP-92 NSCLC = test system: HOP-92 NSCLC
HS 578T breast = test system: HS 578T breast
IGROV1 ovarian = test system: IGROV1 ovarian
K-562 leukemia = test system: K-562 leukemia
KM12 colon = test system: KM12 colon
LOX IMVI melanoma = test system: LOX IMVI melanoma
M14 melanoma = test system: M14 melanoma
MALME-3M melanoma = test system: MALME-3M melanoma
MDA-MB-231 breast = test system: MDA-MB-231 breast
MDA-MB-435 = test system: MDA-MB-435
MDA-MB-468 breast = test system: MDA-MB-468 breast
MOLT-4 leukemia = test system: MOLT-4 leukemia
NCI-H226 lung = test system: NCI-H226 lung
NCI-H23 lung = test system: NCI-H23 lung
NCI-H460 lung = test system: NCI-H460 lung
NCI-H522 lung = test system: NCI-H522 lung
NCI/ADR-RES ovarian = test system: NCI/ADR-RES ovarian
OVCAR-3 ovarian = test system: OVCAR-3 ovarian
OVCAR-4 ovarian = test system: OVCAR-4 ovarian
OVCAR-5 ovarian = test system: OVCAR-5 ovarian
OVCAR-8 ovarian = test system: OVCAR-8 ovarian
RPMI-8226 leukemia = test system: RPMI-8226 leukemia
RXF 393 renal = test system: RXF 393 renal
SF-268 CNS = test system: SF-268 CNS
SF-295 CNS = test system: SF-295 CNS
SF-539 CNS = test system: SF-539 CNS
SK-MEL-2 melanoma = test system: SK-MEL-2 melanoma
SK-MEL-28 melanoma = test system: SK-MEL-28 melanoma
SK-MEL-5 melanoma = test system: SK-MEL-5 melanoma
SK-OV-3 ovarian = test system: SK-OV-3 ovarian
SN12C renal = test system: SN12C renal
SNB-19 CNS = test system: SNB-19 CNS
SNB-75 CNS = test system: SNB-75 CNS
SW-620 colon = test system: SW-620 colon
TK-10 renal = test system: TK-10 renal
U251 CNS = test system: U251 CNS
UACC-257 melanoma = test system: UACC-257 melanoma
UACC-62 melanoma = test system: UACC-62 melanoma

Cc1cccc(-c2nc(Nc3cccc(S(N)(=O)=O)c3)c3ccccc3n2)c1
43 µM: TGI (NCI-H460 lung)
> 100 µM: TGI (786-0 renal) | TGI (A498 renal) | TGI (A549 NSCLC) | TGI (ACHN renal) | TGI (BT-549 breast) | TGI (CAKI-1 renal) | TGI (CCRF-CEM leukemia) | TGI (COLO 205 colon) | TGI (DU-145 prostate) | TGI (EKVX NSCLC) | TGI (HCC-2998 colon) | TGI (HCT-116 colon) | TGI (HCT-15 colon) | TGI (HOP-62 NSCLC) | TGI (HOP-92 NSCLC) | TGI (HS 578T breast) | TGI (IGROV1 ovarian) | TGI (K-562 leukemia) | TGI (KM12 colon) | TGI (LOX IMVI melanoma) | TGI (M14 melanoma) | TGI (MALME-3M melanoma) | TGI (MDA-MB-231 breast) | TGI (MDA-MB-435) | TGI (MDA-MB-468 breast) | TGI (MOLT-4 leukemia) | TGI (NCI-H226 lung) | TGI (NCI-H23 lung) | TGI (NCI-H522 lung) | TGI (NCI/ADR-RES ovarian) | TGI (OVCAR-3 ovarian) | TGI (OVCAR-4 ovarian) | TGI (OVCAR-5 ovarian) | TGI (OVCAR-8 ovarian) | TGI (RPMI-8226 leukemia) | TGI (RXF 393 renal) | TGI (SF-268 CNS) | TGI (SF-295 CNS) | TGI (SK-MEL-2 melanoma) | TGI (SK-MEL-28 melanoma) | TGI (SK-MEL-5 melanoma) | TGI (SK-OV-3 ovarian) | TGI (SN12C renal) | TGI (SNB-19 CNS) | TGI (SNB-75 CNS) | TGI (SW-620 colon) | TGI (TK-10 renal) | TGI (U251 CNS) | TGI (UACC-257 melanoma) | TGI (UACC-62 melanoma)
inactive: GI50 (786-0 renal) 8.53 µM | GI50 (A498 renal) > 100 µM | GI50 (A549 NSCLC) 10.9 µM | GI50 (ACHN renal) 7.93 µM | GI50 (BT-549 breast) > 100 µM | GI50 (CAKI-1 renal) 13.8 µM | GI50 (CCRF-CEM leukemia) 4.77 µM | GI50 (COLO 205 colon) > 100 µM | GI50 (DU-145 prostate) > 100 µM | GI50 (EKVX NSCLC) > 100 µM | GI50 (HCC-2998 colon) 4.98 µM | GI50 (HCT-116 colon) 8.09 µM | GI50 (HCT-15 colon) 3.53 µM | GI50 (HOP-62 NSCLC) > 100 µM | GI50 (HOP-92 NSCLC) 34.9 µM | GI50 (HS 578T breast) > 100 µM | GI50 (IGROV1 ovarian) > 100 µM | GI50 (K-562 leukemia) 3.23 µM | GI50 (KM12 colon) 3.62 µM | GI50 (LOX IMVI melanoma) 4.76 µM | GI50 (M14 melanoma) > 100 µM | GI50 (MALME-3M melanoma) > 100 µM | GI50 (MDA-MB-231 breast) 6.52 µM | GI50 (MDA-MB-435) > 100 µM | GI50 (MDA-MB-468 breast) 5.57 µM | GI50 (MOLT-4 leukemia) 4.1 µM | GI50 (NCI-H226 lung) > 100 µM | GI50 (NCI-H23 lung) 30.6 µM | GI50 (NCI-H460 lung) 7.2 µM | GI50 (NCI-H522 lung) 5.69 µM | GI50 (NCI/ADR-RES ovarian) 7.08 µM | GI50 (OVCAR-3 ovarian) 9.42 µM | GI50 (OVCAR-4 ovarian) > 100 µM | GI50 (OVCAR-5 ovarian) > 100 µM | GI50 (OVCAR-8 ovarian) 9.82 µM | GI50 (RPMI-8226 leukemia) 7.66 µM | GI50 (RXF 393 renal) 6.23 µM | GI50 (SF-268 CNS) > 100 µM | GI50 (SF-295 CNS) 4.43 µM | GI50 (SF-539 CNS) 6.2 µM | GI50 (SK-MEL-2 melanoma) > 100 µM | GI50 (SK-MEL-28 melanoma) > 100 µM | GI50 (SK-MEL-5 melanoma) > 100 µM | GI50 (SK-OV-3 ovarian) > 100 µM | GI50 (SN12C renal) > 100 µM | GI50 (SNB-19 CNS) > 100 µM | GI50 (SNB-75 CNS) > 100 µM | GI50 (SW-620 colon) 17.4 µM | GI50 (TK-10 renal) > 100 µM | GI50 (U251 CNS) 11.6 µM | GI50 (UACC-257 melanoma) > 100 µM | GI50 (UACC-62 melanoma) > 100 µM
25.1 µM: TGI (SF-539 CNS)

Reference: PubChem BioAssay (NCI)
